Values quoted from earlier work as cited in patent publication US20240398745A1, “COMPOSITION AND METHODS OF TREATMENT USING […] - ENHANCED SUPPLEMENTATION” (Xygenyx Inc., priority 2023, published 2024).
Square brackets hold non-standard residues; d marks the D form. Peptide text beside a SMILES is read from it. Cit = NC(=O)NCCC[C@H](N)C(=O)O

Key:
[1] = α-tocopherol taken as 1.0
[2] = in vivo
[3] = in vivo; remark: listed apart in the source
[4] = test system: wide dynamic range neurons in the ventroposterolateral nucleus of the thalamus; conditions: believed
skin [5] = conditions: topical, concentrations 0.5-5%
[6] = even when dietary intake occurs in equal portions
skin [7] = conditions: topical formulations, within four weeks of treatment

For `Cc1cc(O)cc2c1O[C@](C)(CCC[C@H](C)CCC[C@H](C)CCCC(C)C)CC2` [δ-tocopherol], the relative biological activity [1] is given as 0.03.

For “HGH: hormone comprising a peptide chain that is synthesized in the pituitary gland”, the biological half-life [2] is listed as 10-20 minutes.

For `CCNC(=O)CC[C@H](N)C(=O)O` [Theanine], the “dose generally considered safe and well-tolerated” value [3] is given as “up to 400 mg per day”.

In the case of `CCCCCc1cc(O)c2c(c1)OC(C)(C)C1CCC(C)=CC21` (stereo not drawn) [THC, Δ-9-tetrahydrocannabinol], the “power in mediating pain relative to morphine” value [4] is listed as “ten times more powerful than morphine”.

In the case of `Cc1c(C)c2c(c(C)c1O)CC[C@@](C)(CCC[C@H](C)CCC[C@H](C)CCCC(C)C)O2` [α-tocopherol], the “reduction of risk of coronary disease” value (dietary supplementation, doses up to 400 IU/day) is listed as “up to 34%”, the “reduction of risk of developing neurodegenerative diseases such as Alzheimer's Syndrome or dementia” value (dietary supplementation, doses up to 400 IU/day, controlled trials) is listed as no more than 24% and the “reduction in the development of age-related cataracts” value (in combination with 10-20 mg β-carotene and 400-500 mg vitamin C, doses around 400-500 IU) is listed as 23%.

In the case of `Cc1cc(O)c(C)c2c1O[C@](C)(CCC[C@H](C)CCC[C@H](C)CCCC(C)C)CC2` [β-tocopherol], the relative biological activity [1] is given as 0.5.

In the case of `C=CCCCCCCCCC(=O)N[C@@H](Cc1ccccc1)C(=O)O` [UP, Undecylenoyl phenylalanine], the “time of treatment to skin lightening effects” value (skin [5]) is given as no less than 7 days.

For `Cc1c(O)cc2c(c1C)O[C@](C)(CCC[C@H](C)CCC[C@H](C)CCCC(C)C)CC2` [γ-tocopherol], the relative biological activity [1] is listed as 0.1 and the “concentration in vivo relative to α-tocopherol” value [6] is listed as “roughly 10%”.

In the case of `CC[C@H](C)[C@H](NC(=O)[C@H](CC(=O)O)NC(=O)[C@@H](N)CCCCN)C(=O)N[C@@H](CCCNC(N)=O)C(N)=O` [tripeptide-10 citrulline, Tripeptide-10 citrulline] (H-KDI[Cit]-NH2), the improvement of suppleness (skin [7]) is listed as no more than 54%.
